Measured values reported in patent publication US20130136794A1, “HETEROARYL (ALKYL) DITHIOCARBAMATE COMPOUNDS, PREPARATION METHODS AND USES THEREOF” (PEKING UNIVERSITY, priority 2010, published 2013).
Like-named read-outs stand apart in the source and are kept apart here.

How the values were obtained:
[1] = tested on: BGC-823 human gastric cancer; test: Inhibition of tumor cell proliferation at 10 μM, Model B: SRB method; format: cell-based; conditions: BGC-823, SRB method, read-out: Model B Inhibitory rate (%)
Text: (§1) The evaluation of the compounds according to the present invention on the inhibition rate of the proliferation of four different tumor cells, using the routine method for anti-tumor activity tests in the pharmaceutical filed, for example the method described in the following literature: (J. Immuno/Method, 1983, 65, 55).

[2] = tested on: KB human nasopharyngeal cancer; test: Inhibition of tumor cell proliferation at 10 μM, Model D: SRB method; format: cell-based; conditions: read-out: Model D Inhibitory rate (%)
Text: as §1

HL-60 human leukaemia = test: Inhibition of tumor cell proliferation at 10 μM, Model A: MTT method; format: cell-based; conditions: HL-60, MTT method, read-out: Model A Inhibitory rate (%)
Text: as §1

[3] = tested on: Bel-7402 human liver cancer; test: Inhibition of tumor cell proliferation at 10 μM, Model C: SRB method; format: cell-based; conditions: Bel-7402, SRB method, read-out: Model C Inhibitory rate (%)
Text: as §1

[4] = tested on: HCT 116 (cell line of low-expression of both EGFR and erbB2); test: MTT assay on control cell line with low EGFR and erbB2 expression (72 h); format: cell-based; conditions: Homo sapiens, read-out: HCT 116 (μM), EC50
Protocol: (§2) Experimental operations: Human breast cancer SK-BR-3, MDA-MB-468 cells and human colon cancer HCT 116 cells were cultured in vitro. The cells were collected after growth to logarithmic phase, and centrifugated at 1000 rpm for 5 min. The supernatant was discarded, and the cells were suspended with an appropriate amount of medium. The cell concentration was adjusted to 3.5×10^3/mL. Then the cells were seeded into 96-well culture plates in 100 μL per well, and placed in an incubator (37° C., 5% CO2) to be incubated for 24 h. The testing drugs were added, and the negative control group was added DMSO with the final concentration of 5%. Each group has three parallel wells. After being incubated in the incubator for 72 h, 20 μL of 5 mg/mL MTT was added into each well, and the plate was placed at 37° C. for 4 h. 200 μL of DMSO was added into each well, and then the plate was oscillated in an oscillator for 30 min. […] The EC50 values were calculated by using Prism Graphpad statistical software.

[5] = tested on: MDA-MB-468 (cell line of EGFR over-expression); test: MTT assay on EGFR over-expressing cell line (72 h); format: cell-based; conditions: Homo sapiens, read-out: MDA-MB-468 (μM), EC50
Protocol: as §2

[6] = tested on: SK-BR-3 (cell line of erbB2 over-expression); test: MTT assay on erbB2 over-expressing cell line (72 h); format: cell-based; conditions: Homo sapiens, read-out: SK-BR-3 (μM), EC50
Protocol: as §2

[7] = tested on: human leukaemia HL-60 cells; test: EC50 on proliferation of HL-60 cells (MTT, 48 h); format: cell-based; conditions: read-out: HL-60 EC50 (nmol)
Protocol: (§3) EC50 values of the compounds according to the present invention on the proliferation of human leukaemia HL-60 cells and Bel-7402 cells were determined by using the following method, and the results are shown in Table 2.
Testing method for EC50 values on the human leukaemia HL-60 cells: The human leukaemia HL-60 cells were cultured in vitro. The cells were collected after growth to logarithmic phase, and centrifugated at 1000 rpm for 5 min. The supernatant was discarded and the cells were suspended in an appropriate amount of medium. The cell concentration was adjusted to 1.2×10^4/mL. The cells were seeded into 96-well culture plates in 90 μL per well. For each well of the drug treatment groups, 10 μL of medium-diluted drug was added, whereas for the blank control groups, the same amount of medium was added. Every testing drug was set up for three parallel wells, and also three control wells with only testing drugs (without cell) were set up. Negative control groups were medium containing 0.5% DMSO. After the plate was incubated in an incubator for 48 h, 10 μL of 5 mg/mL MTT was added into each well, and then the plate was placed for 3 h at 37° C. 100 μL of ternary solution (5% SDS, 10 mM HCl, 5% isopropanol) was added into each well, and the plate was kept at 37° C. overnight. The absorbance (OD) was measured at 595 nm/620 nm. The EC50 values were calculated by using Prism Graphpad statistical software.

Bel-7402 cells = test: EC50 on proliferation of Bel7402 cells (SRB, 48 h); format: cell-based; conditions: Homo sapiens, read-out: Bel7402 EC50 (nmol)
Protocol: as §3
Testing method for ED50 values on the human Be17402ce11: After the cells were incubated with the addition of the drugs for 48 h, the plates were taken out. 50 μL of pre-cooled 500 g/L trichloroacetic acid was added into each well. The plates were kept in 4° C. refrigerator for 1 h after standing for 5 min, taken out, washed with deionized water for 5 times, and dried in the air. After the plates were completely dried, 100 μL of 0.4% SRB (formulated in 1% acetic acid) was added into each well. Following staining for 20 min, the staining solution was discarded, and the residue was washed with 1% acetic acid for 5 times to remove the uncombined dye. After being dried in the air, the residue was dissolved in 150 μL of 10 mmol/L unbuffered
Tris basic solution (pH=10.5), and oscillated in an oscillator for 5 min. The absorbance of each well at 490 nm was measured with TECAN enzyme mark instrument. The cells in background control plates were treated in the same way for measuring OD490. The EC50 values were calculated by using Prism Graphpad statistical software.

| Compound | melting point [°C] | EC50 ([4]; HCT 116 cells, MTT, 72 h) [µM] | EC50 ([5]; MDA-MB-468 cells, MTT, 72 h) [µM] | EC50 ([6]; SK-BR-3 cells, MTT, 72 h) [µM] | EC50 ([4]; HCT-116, 72 h) [µM] | EC50 ([5]; MDA-MB-468, 72 h) [µM] | EC50 ([6]; SK-BR-3, 72 h) [µM] | inhibition at 10 µM [1] [%] | inhibition at 10 µM [2] [%] | inhibition at 10 µM (HL-60 human leukaemia) [%] | inhibition at 10 µM [3] [%] | EC50 [7] [µM] | EC50 (Bel-7402 cells) [µM] |
| --- | --- | --- | --- | --- | --- | --- | --- | --- | --- | --- | --- | --- | --- |
| C[S+]([O-])CCSC(=S)NCc1ccco1 (stereo not shown) [Compound 7, 2-(methylsulfinyl)ethyl(furan-2-ylmethyl)dithiocarbamate] | 43 to 45 |  |  |  |  |  |  | 16 | 4.07 | 11.2 | -8.68 |  |  |
| N#CCCSC(=S)NCc1cccnc1 [Compound 11, 2-cyanoethyl(pyridin-3-ylmethyl)dithiocarbamate] | 58 to 60 | 10.4 | 9.54 | 2.84 |  |  |  | 60.4 | 93.7 | 72.3 | 86.1 | 0.00146 | 0.0272 |
| CS(=O)(=O)CCNCc1ccc(-c2ccc3ncnc(Nc4ccc(OCc5cccc(F)c5)c(Cl)c4)c3c2)o1 [Lapatinib, reference compound] |  |  |  |  | 42.4 | 19.6 | 4.35 |  |  |  |  |  |  |
| [O-][S+](CCSC(=S)NCc1ccco1)Cc1ccccc1 (stereo not shown) [Compound 8, 2-(benzylsulfinyl)ethyl(furan-2-ylmethyl)dithiocarbamate] | 51 to 52 |  |  |  |  |  |  | 12.3 | 10.5 | 20.9 | 56.9 |  |  |
| CCCCOC(=O)CCSC(=S)NCc1cccnc1 [Compound 47, 2-(butoxycarbonyl)ethyl (pyridin-3-ylmethyl)dithiocarbamate] |  | 7.83 | 12.8 | 4.46 |  |  |  |  |  |  |  | 0.0254 | 0.00636 |
| [O-][S+](CCSC(=S)NCc1cccnc1)Cc1ccccc1 (stereo not shown) [Compound 16, 2-(benzylsulfinyl)ethyl(pyridin-3-ylmethyl)dithiocarbamate] |  | 16.2 | 0.953 | 0.655 |  |  |  | 72.3 | 93.1 | 26.1 | 96.1 |  |  |
| CC1=CSC(=S)N(Cc2cccnc2)C1(C)O (stereo not shown) [Compound 12, 4-hydroxy-4,5-dimethyl-3-(pyridin-3-ylmethyl)-3,4-dihydro-2H-1,3-thiazine-2-thione] | 71 to 72 |  |  |  |  |  |  | 43.9 | 15.2 | 79.9 | 8.66 |  |  |
| COC(=O)CCSC(=S)NCc1cccnc1 [Compound 10, 2-(methoxycarbonyl)ethyl(pyridin-3-ylmethyl)dithiocarbamate] |  |  |  |  |  |  |  | 72 | 91.5 | 61.9 | 87.5 |  |  |
| OC1CCSC(=S)N1Cc1ccco1 (stereo not shown) [Compound 1, 3-(furan-2-ylmethyl)-4-hydroxy-1,3-thiazinane-2-thione] | 42 to 43 |  |  |  |  |  |  | 20 | 20.1 | 28.4 | 43.1 |  |  |
| NS(=O)(=O)CCSC(=S)NCc1ccco1 [Compound 5, 2-sulfamoylethyl(furan-2-ylmethyl)dithiocarbamate] |  |  |  |  |  |  |  | 17.2 | 31.6 | 17.3 | 17.5 |  |  |

The next lines start with results.

| melting point [°C] | EC50 ([4]; HCT 116 cells, MTT, 72 h) [µM] | EC50 ([5]; MDA-MB-468 cells, MTT, 72 h) [µM] | EC50 ([6]; SK-BR-3 cells, MTT, 72 h) [µM] | EC50 ([4]; HCT-116, 72 h) [µM] | EC50 ([5]; MDA-MB-468, 72 h) [µM] | EC50 ([6]; SK-BR-3, 72 h) [µM] | Compound | inhibition at 10 µM [1] [%] | inhibition at 10 µM [2] [%] | inhibition at 10 µM (HL-60 human leukaemia) [%] | inhibition at 10 µM [3] [%] | EC50 [7] [µM] | EC50 (Bel-7402 cells) [µM] |
| --- | --- | --- | --- | --- | --- | --- | --- | --- | --- | --- | --- | --- | --- |
| 56 to 57 |  |  |  |  |  |  | OC1CCSC(=S)N1Cc1cccnc1 (stereo not shown) [Compound 9, 4-hydroxy-3-(pyridin-3-ylmethyl)-1,3-thiazinane-2-thione] | 20.3 | 61.3 | 38.9 | 79.5 |  |  |
| 88 to 89 |  |  |  |  |  |  | CC1=CSC(=S)N(Cc2ccco2)C1(C)O (stereo not shown) [Compound 4, 3-(furan-2-ylmethyl)-4-hydroxy-4,5-dimethyl-3,4-dihydro-2H-1,3-thiazine-2-thione] | 15.2 | 5.76 | 23.7 | 2.91 |  |  |
| 50 to 52 |  |  |  |  |  |  | COC(=O)CCSC(=S)NCc1ccco1 [Compound 2, 2-(methoxycarbonyl)ethyl(furan-2-ylmethyl)dithiocarbamate] | 16.4 | 3.8 | 19.3 | -1.69 |  |  |
| 49 to 50 |  |  |  |  |  |  | OB(O)CCSC(=S)NCc1cccnc1 [Compound 14, 2-boronoethyl(pyridin-3-ylmethyl)dithiocarbamate] | 68.6 | 94.5 | 41.4 | 91 |  |  |
